From US7795226B2, “Control of radiation injury” (Biotempt B.V., priority 2006, dated 2010)

Assays:
[1] = tested on: LPS (E. coli 026:B6)-induced sepsis in BALB/c mice; assay: endotoxin shock survival after early or late treatment with peptide; format: in vivo
Experimental: Mice used in sepsis or septic shock experiments: Female BALB/c mice of eight to twelve weeks of age were used for all experiments. The animals were bred in our facility under specific pathogen-free conditions according to the protocols described in the […] of European Laboratory Animal Science Associations (FELASA) Working group on Animal Health (Laboratory Animals 28:1-24, 1994).
Injection protocols: For the endotoxin model, BALB/c mice were injected i.p. with 150-300 μg LPS (E. coli 026:B6; Difco Lab., Detroit, Mich., USA). Control groups were treated with PBS i.p. only. To test the effect of peptides, they were dissolved in PBS and injected i.p. at predetermined points in time after LPS treatment.
A further set of septic shock experiments were set up to determine which of the peptides LQG, LQGV (SEQ ID NO:117), VLPALP (SEQ ID NO:140), VLPALPQ (SEQ ID NO:143), MTR, MTRV (SEQ ID NO:119), VVC or AQGV (SEQ ID NO:120) under study were most suited to be used early and/or late after or throughout the development of shock. For determining the percent of endotoxin shock survival after late or early treatment with peptide, BALB/c mice were injected i.p. with 300 μg LPS (E. coli 026:B6; Difco Lab., Detroit, Mich. USA), predetermined to be leading to 100% mortality in 48 hours without peptide treatment.
To evaluate the effect of peptide treatment at an early or late point in time of development of shock, mice were treated at two hours or at 24 hours after LPS injection by i.p. injection with test peptide at 5 mg/kg bodyweight. The mice were followed for 84 hours instead of for 48 hours in the earlier experiments.

[2] = tested on: cell-cycle marker pCDG and auxin-responsive marker DR5::GUS; assay: Arabidopsis thaliana seedling cell-cycle analysis (GUS markers); details: for identified as useful peptide for treatment of radiation injury from cell-cycle studies in plants and in vitro proliferation studies: Results from Examples 9 and 10
Outline: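 Four-day-old Ws-0 seedlings carrying GUS reporters (pCDG, DR5::GUS) were exposed to peptides at 5 mg/ml in PBS pH 8 for four and eight hours. GUS staining with 2 mM X-Gluc for 16 hours; distribution in root, root-hypocotyl transition zone and cotyledons assessed by DIC microscopy after chloral hydrate clearing.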

[3] = tested on: spleen cell suspensions stimulated with anti-CD3 antibody; assay: anti-CD3 induced proliferation of spleen cells from peptide-treated mice; format: cell-based; details: mice treated i.p. 0.5 or 5 mg/kg for one hour; 0, 12, 24 and 48 hours culture
Experimental: FIG. 4: A test on representative oligopeptides for their effect on proliferation during rapid growth of murine monocytes induced by CD3 when avid cell division occurs. Mice (n=5) were treated i.p. PBS, Nak4 (LQGV (SEQ ID NO:117)), Nak47 (LAGV (SEQ ID NO:121)), Nak46 (AQGV (SEQ ID NO:120)) provided by Ansynth BV, The Netherlands, or Nak46* (AQGV (SEQ ID NO:120) provided by Diosynth BV, The Netherlands). Mice were treated with 0.5 mg/kg of 5 mg/kg peptide for one hour, after which, spleens were isolated and spleen cell suspensions were made. Spleen cell suspensions were pooled per group and cultured in vitro (in three-fold) in the presence of PBS or of anti-CD3 antibody and proliferation was tested at 0, 12, 24 and 48 hours after culture.
To further study anti-cell-cycle activity of various oligopeptides, an in vitro experiment in […] of mice stimulated with anti-CD3 was performed. The aim was to test representative oligopeptides for their effect on proliferation during rapid growth induced by CD3 when avid cell division occurs. Mice (n=5) were treated i.p. PBS, Nak4 (LQGV (SEO ID NO:117)), Nak47 (LAGV (SEQ ID NO:121)), Nak46 (AQGV (SEQ ID NO:120)) provided by Ansynth BV, The Netherlands, or Nak46* (AQGV (SEQ ID NO:120) provided by Diosynth BV, The Netherlands). Mice were treated with 0.5 mg/kg or 5 mg/kg peptide for one hour after which spleens were isolated and spleen cell suspensions were made. Spleen cell suspensions were pooled per group and cultured in vitro (in three-fold) in the presence of PBS or of anti-CD3 antibody and proliferation was tested at 0, 12, 24 and 48 hours after culture.

[4] = 0 hours, peptide 5 mg/kg 2 hours after LPS
[5] = 0 hours, peptide 5 mg/kg 24 hours after LPS
[6] = 5 mg/kg given both early (2 hours) or late (24 hours)
[7] = 14 hours, peptide 5 mg/kg 2 hours after LPS
[8] = 14 hours, peptide 5 mg/kg 24 hours after LPS
[9] = 24 hours, peptide 5 mg/kg 2 hours after LPS
[10] = 24 hours, peptide 5 mg/kg 24 hours after LPS
[11] = 48 hours, peptide 5 mg/kg 2 hours after LPS
[12] = 48 hours, peptide 5 mg/kg 24 hours after LPS
[13] = 84 hours, peptide 5 mg/kg 2 hours after LPS
[14] = 84 hours, peptide 5 mg/kg 24 hours after LPS

| Substance | % Survival [1, 4] [%] | % Survival [1, 5] [%] | clinical signs of shock at 84 hours after LPS-treatment (in words) [1, 6] | survival at 84 hours after LPS-treatment [1, 6] [%] | % Survival [1, 7] [%] | % Survival [1, 8] [%] | % Survival [1, 9] [%] | % Survival [1, 10] [%] | % Survival [1, 11] [%] | % Survival [1, 12] [%] | % Survival [1, 13] [%] | % Survival [1, 14] [%] | identified as useful peptide for treatment of radiation injury from cell-cycle studies in plants and in vitro proliferation studies [2] | proliferation of anti-CD3 stimulated spleen cells (in words) [3] | effect on cell-cycle marker (pCDG) and auxin-responsive marker (DR5::GUS) (in words) ([2]; seedlings incubated four and eight hours, 5 mg/ml peptide solution) |
| --- | --- | --- | --- | --- | --- | --- | --- | --- | --- | --- | --- | --- | --- | --- | --- |
| AQGV | 100 | 100 | no remaining clinical signs of shock | 100 | 100 | 100 | 100 | 100 | 100 | 100 | 100 | 100 | useful | reduction of proliferation |  |
| LAGV (tetramer peptide) |  |  |  |  |  |  |  |  |  |  |  |  | useful | reduction of proliferation |  |
| LQG | 100 | 100 |  |  | 100 | 100 | 100 | 100 | 0 | 0 | 0 | 0 |  |  |  |
| LQGV | 100 | 100 |  |  | 100 | 100 | 100 | 100 | 100 | 0 | 100 | 0 | useful | reduction of proliferation | clear effect on the tested markers |
| MTR | 100 | 100 |  |  | 100 | 100 | 100 | 100 | 100 | 100 | 50 | 100 |  |  |  |
| MTRV | 100 | 100 |  |  | 100 | 100 | 100 | 100 | 50 | 100 | 30 | 100 | useful |  |  |
| VLPALP (hexamer peptide) | 100 | 100 |  |  | 100 | 100 | 100 | 100 | 100 | 0 | 100 | 0 | useful |  |  |
| VLPALPQ (septamer peptide) | 100 | 100 |  |  | 100 | 100 | 100 | 100 | 0 | 100 | 0 | 100 |  |  |  |
